Assay results taken from US10286063B2 (priority 2015, dated 2019).

System: PBMC
Assay type: cell-based, human

In the case of “RGILKRNSSSSSTDS [Peptide 5-HUMAN-B, reference compound]”, the “% Inhibition by HLA-DR blocking Ab” value is reported as 100%.
